Key:
CCRF-CEM = assay: Cytotoxic activity, MTT method, 48 h; type: cell-based; conditions: for GI50 / TGI: CCRF-CEM, 48 h, MTT
Procedure: (§1) Human cancer cell lines were used for in vitro drug testing. The cells were maintained as exponentially proliferating suspension cultures in RPMI-1640 medium (supplemented with 10% heat inactivated foetal calf serum, 2mM L-Glutamine and 50 μg/ml gentamycin and incubated at 37° C., in a humidified atmosphere with 5% CO2. Peripheral blood mononuclear cells (PBML) were also isolated from normal donors using the Ficoll-Hypaque method and cultured as the cancer cell lines.
(§2) To determine the cytotoxicity, log-phase cells from each cell line, resting and activated PBML (1×10^6 cells/ml), were incubated with free compound or liposomal formulation for 48 h, in 96-well flat-bottomed micro plates.
(§3) The initial inoculation densities for each cell line are presented in table (1) and were determined taking into account cell mass and growth rate (Monks A., Scudiero, D., Skehan P., Shomaker R., Pauli K., Vistica D., Hose C et al. Feasibility of a High-Flux Anticancer Drug screen using a diverse panel of cultured human tumor cell lines. JNCI 1991; 83(11): 757-766 Paul K D, Shomaker R H, Hodes L, Monks A, Scudiero D A, Rubinstein L., Plowman J and Boyd M R. Tumor Cell Lines: Development of Mean Graph and Compare Algorithm. JNCI 1989; 81(14): 1088-1092). Viability of the cells was assessed by trypan blue dye exclusion, at the beginning of the experiment and was always greater than 98%.
(§4) Cells were added at the appropriate inoculation densities in 96-well micro titer plates and preincubated for 24 hours in a moist atmosphere of 5% CO2 in air at 37 °C, to allow stabilization prior to addition of the test compounds. To determine their activity, the free compound or liposomal formulation were added at the same time to each cell line. Cultures, where an equivalent amount of DMSO was added, used as controls. After the addition of the test agents the cells were cultured in micro plates for an additional 48 h under the same conditions. Each test agent was inoculated at five concentrations (10−4 to 10−8 M). The activity for each compound on each cell line was determined by the MTT method with modifications. Briefly 4 h before the end of the 48 h incubation period, MTT (3-(4,5-dimethylthiazol-2-yl)-2-5 diphenyl tetrazolium bromide, Sigma-Aldrich) dissolved in PBS (Phosphate buffered saline), was added in the cell cultures to give a final concentration of 50 μg/ml. At the end of the 48 h incubation period, DMSO was added to the wells and the optical density was measured with an ANTHOS HT II Microelisa reader, using a test wavelength of 550 nm.
(§5) The data represent the means of experiments done in triplicates and were analyzed using a two-tailed Student's t-test.
(§6) Three parameters GI50, TGI and LC50 were estimated using the MTT method. […] TGI is the concentration of the test agent where 100*(T−T0)/(C−TO)=0 and measures the cytostatic effect. Finally LC50 is the concentration of the drug where 100*(T−TO)/TO=−50 and measures the cytotoxic effect of the drug. At the above formulas used for the calculation of the three parameters, T is the optical density of the test well after a 48 h period of exposure to test compound; TO is the optical density at the time zero (when the drug is added) and C is the optical density of the control well (cells incubated for 48 h with no additives).
(§7) The leukemic cell lines CCRF-CEM, MOLT4, HUT78 (T cells), RPMI 8226 (B cell line), HL60 (promyelocytic cell line), K562 (proerythrocytes) and the multi-drug resistant (MDR) cell lines: CCRF-CEM/C2, HL60/MXl and HL601MX2 were used. All cell lines were grown and tested for viability as described above. Free compounds and encapsulated (as described above) were tested according to the method described under cytotoxic activity (see Biological activity, above).

K562 = assay: Cytotoxic activity, MTT method, 48 h; type: cell-based; conditions: for GI50 / TGI: K562, 48 h, MTT
Procedure: as §1, §2, §3, §4, §5, §6, §7

MOLT4 = assay: Cytotoxic activity, MTT method, 48 h; type: cell-based; conditions: for GI50 / TGI: MOLT4, 48 h, MTT
Procedure: as §1, §2, §3, §4, §5, §6, §7

RPMI 8226 = assay: Cytotoxic activity, MTT method, 48 h; type: cell-based; conditions: for GI50 / TGI: RPMI 8226, 48 h, MTT
Procedure: as §1, §2, §3, §4, §5, §6, §7

HUT78 = assay: Cytotoxic activity, MTT method, 48 h; type: cell-based; conditions: for GI50 / TGI: HUT78, 48 h, MTT
Procedure: as §1, §2, §3, §4, §5, §6, §7

HL60 = assay: Cytotoxic activity, MTT method, 48 h; type: cell-based; conditions: for GI50 / TGI: HL60, 48 h, MTT
Procedure: as §1, §2, §3, §4, §5, §6, §7

[1] = test system: leukemic cell lines (MEAN); assay: Cytotoxic activity, MTT method, mean over the leukemic cell lines; type: cell-based; conditions: for GI50 / TGI: MEAN of the nine leukemic cell lines
Procedure: as §1, §2, §3, §4, §5, §6, §7

PBML (stimulating) = type: cell-based, human; conditions: for GI50 / TGI: normal PBML, activated by 5 μg/ml PHA-P, 48 h, MTT
Procedure: as §1, §2, §4, §5, §6, §7

PBML (resting) = type: cell-based, human; conditions: for GI50 / TGI: normal PBML, resting, 48 h, MTT
Procedure: as §1, §2, §4, §5, §6, §7

HL601/MX2 = type: cell-based; conditions: for GI50 / TGI: HL601/MX2 (MDR), 48 h, MTT
Procedure: as §1, §2
as §3, with “1088-1092).” for “1088-1092). Viability of the cells was assessed by trypan blue dye exclusion, at the beginning of the experiment and was always greater than 98%.”
as §4, §5, §6, §7
(§8) The Resistant Factor (RF) is defined as follows: GI50 of the MDR daughter cell line/GI50 of the parental cell line. The (−) represents a parental cell line more resistant than the daughter MDR line.

HL60/MX1 = type: cell-based; conditions: for GI50 / TGI: HL60/MX1 (MDR), 48 h, MTT
Procedure: as §1, §2
as §3, with “1088-1092).” for “1088-1092). Viability of the cells was assessed by trypan blue dye exclusion, at the beginning of the experiment and was always greater than 98%.”
as §4, §5, §6, §7, §8

CCRF-CEM/C2 = type: cell-based; conditions: for GI50 / TGI: CCRF-CEM/C2 (MDR), 48 h, MTT
Procedure: as §1, §2
as §3, with “1088-1092).” for “1088-1092). Viability of the cells was assessed by trypan blue dye exclusion, at the beginning of the experiment and was always greater than 98%.”
as §4, §5, §6, §7, §8

MCF-7 (Breast cancer) = assay: Growth percentages at 100 μM; type: cell-based, human
Procedure: as §1, §4
(§9) Three parameters GI50, TGI and LC50 were estimated using the MTT method. […] TGI is the concentration of the test agent where 100*(T−T0)/(C−TO)=0 and measures the cytostatic effect. Finally LC50 is the concentration of the drug where 100*(T−TO)/TO=−50 and measures the cytotoxic effect of the drug. […]

NCI-H460 (Lung cancer) = assay: Growth percentages at 100 μM; type: cell-based, human
Procedure: as §1, §4, §9

SF-268 (CNS cancer) = assay: Growth percentages at 100 μM; type: cell-based, human
Procedure: as §1, §4, §9

Row | SMILES | CC50 (CCRF-CEM) [µM] | GI50 (CCRF-CEM) [µM] | TGI (CCRF-CEM) [µM] | CC50 (K562) [µM] | GI50 (K562) [µM] | TGI (K562) [µM] | CC50 (MOLT4) [µM] | GI50 (MOLT4) [µM] | TGI (MOLT4) [µM] | CC50 (RPMI 8226) [µM] | GI50 (RPMI 8226) [µM] | TGI (RPMI 8226) [µM] | CC50 (HUT78) [µM] | GI50 (HUT78) [µM] | TGI (HUT78) [µM] | CC50 (HL60) [µM] | GI50 (HL60) [µM] | TGI (HL60) [µM] | CC50 [1] [µM] | GI50 [1] [µM] | also measured
1 | CC(=CCO)CC[C@@H]1[C@@]2(C)CCCC(C)(C)[C@@H]2CC[C@@]1(C)O [Label-13-ene-8, 15 diol, labd-13-ene-8α,15-diol] | 200 | 75.7 | 141.08 | 200 | 87.1 | 159 | 120 | 32.3 | 76.22 | 118 | 42.2 | 80.08 | 200 | 109 | 186 | 91.8 | 47.7 | 69.74 | 139 | 59.1 | TGI [1]: 104.48 µM; CC50 (PBML (stimulating)): > 100 µM; GI50 (PBML (stimulating)): 66.2 µM; TGI (PBML (stimulating)): >>100 μM; CC50 (PBML (resting)): > 100 µM; GI50 (PBML (resting)): > 100 µM; TGI (PBML (resting)): >>100 μM; CC50 (HL601/MX2): 102 µM; GI50 (HL601/MX2): 43.8 µM; TGI (HL601/MX2): 73.14 µM; CC50 (HL60/MX1): 108 µM; GI50 (HL60/MX1): 52.3 µM; TGI (HL60/MX1): 80.1 µM; CC50 (CCRF-CEM/C2): 108 µM; GI50 (CCRF-CEM/C2): 42.3 µM; TGI (CCRF-CEM/C2): 74.96 µM; Growth Percentages (MCF-7 (Breast cancer)): −89%; Growth Percentages (NCI-H460 (Lung cancer)): −80%; Growth Percentages (SF-268 (CNS cancer)): −88%
2 | CC(=O)OCC=C(C)CC[C@@H]1[C@@]2(C)CCCC(C)(C)[C@@H]2CC[C@@]1(C)O [Label-13-ene-8, 15-yl acetate, labd-13-ene,8α-ol,15-yl acetate] | 187 | 69.1 | 128.17 | 200 | 78.2 | 162.00 | 137 | 42.8 | 89.95 | 95.5 | 41.3 | 68.43 | 200 | 95.2 | 164.00 | 89.3 | 44.8 | 67.04 | 136 | 56.8 | TGI [1]: 100.94 µM; CC50 (PBML (stimulating)): > 100 µM; GI50 (PBML (stimulating)): 65.9 µM; TGI (PBML (stimulating)): >>100 μM; CC50 (PBML (resting)): > 100 µM; GI50 (PBML (resting)): > 100 µM; TGI (PBML (resting)): >>100 μM; CC50 (HL601/MX2): 101 µM; GI50 (HL601/MX2): 38.8 µM; TGI (HL601/MX2): 69.90 µM; CC50 (HL60/MX1): 106 µM; GI50 (HL60/MX1): 53.9 µM; TGI (HL60/MX1): 80.14 µM; CC50 (CCRF-CEM/C2): 111 µM; GI50 (CCRF-CEM/C2): 46.8 µM; TGI (CCRF-CEM/C2): 78.83 µM
3 | C=C[C@](C)(O)CC[C@@H]1[C@@]2(C)CCCC(C)(C)[C@@H]2CC[C@@]1(C)O [Label-14-ene-8, 13 diol, labd-14-ene-8,13-diol] | 85 | 35 | 60.00 | 79.3 | 35.6 | 57.45 | 77.7 | 31.6 | 54.66 | 70.7 | 14.9 | 42.84 | 78.5 | 33.7 | 56.09 | 80 | 41.5 | 60.72 | 78.3 | 32.9 | TGI [1]: 55.58 µM; CC50 (PBML (stimulating)): 89 µM; GI50 (PBML (stimulating)): 33.1 µM; TGI (PBML (stimulating)): 61.0 µM; CC50 (PBML (resting)): 93.1 µM; GI50 (PBML (resting)): 34.6 µM; TGI (PBML (resting)): 63.8 µM; CC50 (HL601/MX2): 76.8 µM; GI50 (HL601/MX2): 31.4 µM; TGI (HL601/MX2): 54.12 µM; CC50 (HL60/MX1): 80.9 µM; GI50 (HL60/MX1): 42.9 µM; TGI (HL60/MX1): 61.90 µM; CC50 (CCRF-CEM/C2): 75.8 µM; GI50 (CCRF-CEM/C2): 29.1 µM; TGI (CCRF-CEM/C2): 52.41 µM
